# Patent US20260007684A1, “AMIDE DERIVATIVES FOR INHIBITING NLRP3 AND USES THEREOF” (Ventus Therapeutics U.S., Inc., priority 2023, published 2026)
# Read-outs that look alike come from different tables or passages of the source.
# Target: human NLRP3 (Homo sapiens (Human), UniProt Q96P20)
# Experiment: Scintillation Proximity (SPA) NLRP3 Assay: displacement of 3H-MCC950
# Assay type: binding
# [1] = displacement of 3H-MCC950, read-out: SPA IC50
# [2] = SPA IC50, displacement of 3H-MCC950
# Sequence of human NLRP3 (Q96P20 whole entry): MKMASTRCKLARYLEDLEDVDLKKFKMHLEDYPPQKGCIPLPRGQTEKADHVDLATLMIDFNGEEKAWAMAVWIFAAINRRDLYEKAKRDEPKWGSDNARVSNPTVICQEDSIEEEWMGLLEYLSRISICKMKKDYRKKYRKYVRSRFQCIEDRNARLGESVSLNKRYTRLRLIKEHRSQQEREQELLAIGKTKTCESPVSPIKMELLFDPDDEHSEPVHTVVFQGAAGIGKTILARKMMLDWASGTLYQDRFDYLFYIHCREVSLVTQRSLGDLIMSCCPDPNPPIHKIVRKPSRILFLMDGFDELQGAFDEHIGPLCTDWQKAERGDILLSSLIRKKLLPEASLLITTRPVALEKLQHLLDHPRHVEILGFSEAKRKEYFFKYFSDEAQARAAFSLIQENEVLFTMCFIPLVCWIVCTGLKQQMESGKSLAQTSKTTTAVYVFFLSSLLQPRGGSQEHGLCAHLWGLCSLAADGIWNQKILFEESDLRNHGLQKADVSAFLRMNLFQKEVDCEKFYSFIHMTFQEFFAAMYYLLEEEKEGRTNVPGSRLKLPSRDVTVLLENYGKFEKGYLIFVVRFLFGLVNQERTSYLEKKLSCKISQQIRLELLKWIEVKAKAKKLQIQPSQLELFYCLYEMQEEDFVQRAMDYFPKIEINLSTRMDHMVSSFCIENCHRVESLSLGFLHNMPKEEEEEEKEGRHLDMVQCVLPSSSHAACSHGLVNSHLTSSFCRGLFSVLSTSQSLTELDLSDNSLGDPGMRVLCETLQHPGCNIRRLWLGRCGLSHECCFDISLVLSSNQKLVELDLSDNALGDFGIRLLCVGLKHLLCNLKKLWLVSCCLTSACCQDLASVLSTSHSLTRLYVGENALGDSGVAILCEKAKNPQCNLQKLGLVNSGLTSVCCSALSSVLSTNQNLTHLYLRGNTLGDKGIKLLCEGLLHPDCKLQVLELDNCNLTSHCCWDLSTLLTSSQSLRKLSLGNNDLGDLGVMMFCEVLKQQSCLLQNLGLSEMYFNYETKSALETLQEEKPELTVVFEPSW
IC50 [1] [µM],Compound,IC50 [2] [µM]
> 100,"C[C@H]1CCN(c2nnn[nH]2)C[C@H](NC(=O)C2(c3ccc(OC(F)(F)F)cc3)CC2)C1 (single isomer, unassigned) [57C*]",
,"O=C(N[C@@H]1CCC[C@H]2CC[C@@H]1N2c1nnn[nH]1)C1(c2ccc(C(F)(F)F)cc2O)CC1 [88C*, N-((1S,2R,6S)-9-(1H-tetrazol-5-yl)-9-azabicyclo[4.2.1]nonan-2-yl)-1-(2-hydroxy-4-(trifluoromethyl)phenyl)cyclopropane-1-carboxamide]",50 to 100
10 to 50,"C[C@@H]1CC[C@@H](NC(=O)C2(c3ccc(Cl)cc3O)CC2)CN(c2nnn[nH]2)C1 (single isomer, unassigned) [90C*]",
10 to 50,"C[C@H]1CCN(c2nnn[nH]2)C[C@@H](NC(=O)C2(c3cnc(Cl)cc3O)CC2)C1 (single isomer, unassigned) [99D*]",
1 to 10,"C[C@@H]1CCN(c2nnn[nH]2)C[C@@H](NC(=O)C2(c3ccc(OC(F)(F)F)cc3)CC2)C1 (single isomer, unassigned) [57B*]",
1 to 10,"C[C@@H]1CCN(c2nnn[nH]2)C[C@@H](NC(=O)C2(c3ccc(OC(F)F)c(F)c3)CC2)C1 (single isomer, unassigned) [73B*]",
1 to 10,"C[C@@H]1CCN(c2nnn[nH]2)C[C@@H](NC(=O)C2(c3cnc(Cl)cc3O)CC2)C1 (single isomer, unassigned) [99B*]",
10 to 50,"CC1(C)C[C@H](NC(=O)C2(c3ccc(Cl)cc3O)CC2)CN(c2nnn[nH]2)C1 (single isomer, unassigned) [42B*]",
1 to 10,"C[C@@H]1CCN(c2nnn[nH]2)C[C@@H](NC(=O)C2(c3ccc(Br)cc3)CC2)C1 (single isomer, unassigned) [59B*]",
> 100,"C[C@H]1CCN(c2nnn[nH]2)C[C@H](NC(=O)C2(c3ccc(OC(F)F)cc3F)CC2)C1 (single isomer, unassigned) [3C*]",
50 to 100,"C[C@H]1CCN(c2nnn[nH]2)C[C@H](NC(=O)C2(c3ccc(Cl)c(F)c3F)CC2)C1 (single isomer, unassigned) [4C*, 1-(4-chloro-2,3-difluorophenyl)-N-(5-methyl-1-(1H-tetrazol-5-yl)azepan-3-yl)cyclopropane-1-carboxamide]",
> 100,"C[C@H]1CCN(c2nnn[nH]2)C[C@H](NC(=O)C2(c3ccc(C(F)(F)F)c(OC(F)F)c3)CC2)C1 (single isomer, unassigned) [54C*]",
,"C[C@@H]1C[C@H]2CC[C@@H]([C@@H](NC(=O)C3(c4ccc(C(F)(F)F)cc4)CC3)C1)N2c1nnn[nH]1 [104D*, N-((1S,2S,4S,6R)-4-methyl-9-(1H-tetrazol-5-yl)-9-azabicyclo[4.2.1]nonan-2-yl)-1-(4-(trifluoromethyl)phenyl)cyclopropane-1-carboxamide]",10 to 50
> 100,"C[C@]1(NC(=O)C2(c3ccc(Cl)cc3)CC2)CCCN(c2nnn[nH]2)C1 (single isomer, unassigned) [11B*, 1-(4-chlorophenyl)-N-(3-methyl-1-(1H-tetrazol-5-yl)piperidin-3-yl)cyclopropane-1-carboxamide]",
10 to 50,"C[C@H]1CCN(c2nnn[nH]2)C[C@H](NC(=O)C2(c3ccc(Cl)c(F)c3)CC2)C1 (single isomer, unassigned) [65C*]",
10 to 50,"Cc1ccc(C2(C(=O)N[C@H]3C[C@@H](C)CCN(c4nnn[nH]4)C3)CC2)cc1 (single isomer, unassigned) [71D*]",
10 to 50,"C[C@@H]1CCN(c2nnn[nH]2)C[C@@H](NC(=O)C2(c3ccc(Cl)cc3Cl)CC2)C1 (single isomer, unassigned) [55B*]",
< 1,"C[C@H]1CC[C@H](NC(=O)C2(c3ccc(C4CC4)cc3O)CC2)CN(c2nnn[nH]2)C1 (single isomer, unassigned) [91B*]",
10 to 50,"C[C@@H]1CCN(c2nnn[nH]2)C[C@@H](NC(=O)C2(c3ccc(C(F)F)cc3)CC2)C1 (single isomer, unassigned) [5B*, 1-(4-(difluoromethyl)phenyl)-N-(5-methyl-1-(1H-tetrazol-5-yl)azepan-3-yl)cyclopropane-1-carboxamide]",
10 to 50,"C[C@H]1CCN(c2nnn[nH]2)C[C@H](NC(=O)C2(c3ccc(C4CCC4)cc3)CC2)C1 (single isomer, unassigned) [8C*, 1-(4-cyclobutylphenyl)-N-(5-methyl-1-(1H-tetrazol-5-yl)azepan-3-yl)cyclopropane-1-carboxamide]",
1 to 10,"C[C@H]1CCN(c2nnn[nH]2)C[C@@H](NC(=O)C2(c3cc(F)c(C(F)(F)F)cc3F)CC2)C1 (single isomer, unassigned) [7D*, 1-(2,5-difluoro-4-(trifluoromethyl)phenyl)-N-(5-methyl-1-(1H-tetrazol-5-yl)azepan-3-yl)cyclopropane-1-carboxamide]",
10 to 50,"C[C@@H]1C[C@@H](NC(=O)C2(c3ccc(Cl)cc3)CC2)CN(c2nnn[nH]2)C1 [Compound 46C, 1-(4-chlorophenyl)-N-[(3R,5R)-5-methyl-1-(1H-tetrazol-5-yl)-3-piperidyl]cyclopropanecarboxamide]",
1 to 10,"C[C@@H]1CCN(c2nnn[nH]2)C[C@@H](NC(=O)C2(c3ccc(Cl)c(F)c3O)CC2)C1 (single isomer, unassigned) [18B*, 1-(4-chloro-3-fluoro-2-hydroxyphenyl)-N-(5-methyl-1-(1H-tetrazol-5-yl)azepan-3-yl)cyclopropane-1-carboxamide]",
> 100,"C[C@@H]1[C@H](NC(=O)C2(c3ccc(Cl)cc3)CC2)CCCN1c1nnn[nH]1 [Compound 40A, 1-(4-chlorophenyl)-N-[(2R,3R)-2-methyl-1-(1H-tetrazol-5-yl)-3-piperidyl]cyclopropanecarboxamide]",
10 to 50,"C[C@H]1CCN(c2nnn[nH]2)C[C@@H](NC(=O)C2(c3cc(F)c(Cl)cc3O)CC2)C1 (single isomer, unassigned) [29D*, 1-(4-chloro-5-fluoro-2-hydroxyphenyl)-N-(5-methyl-1-(1H-tetrazol-5-yl)azepan-3-yl)cyclopropane-1-carboxamide]",
,"O=C(N[C@H]1CCC[C@H]2CC[C@@H]1N2c1nnn[nH]1)C1(c2ccc(Cl)cc2)CC1 (single isomer, unassigned) [9D*, N-(9-(1H-tetrazol-5-yl)-9-azabicyclo[4.2.1]nonan-2-yl)-1-(4-chlorophenyl)cyclopropane-1-carboxamide]",10 to 50
1 to 10,"C[C@@H]1CCN(c2nnn[nH]2)C[C@@H](NC(=O)C2(c3ccc(C(F)(F)F)c(F)c3)CC2)C1 (single isomer, unassigned) [66B*]",
,"O=C(N[C@@H]1CCC[C@H]2CC[C@@H]1N2c1nnn[nH]1)C1(c2ccc(Cl)cc2)CC1 (single isomer, unassigned) [9C*, N-(9-(1H-tetrazol-5-yl)-9-azabicyclo[4.2.1]nonan-2-yl)-1-(4-chlorophenyl)cyclopropane-1-carboxamide]",> 100
10 to 50,"C[C@H]1CCN(c2nnn[nH]2)C[C@H](NC(=O)C2(c3ccc(OC(F)F)c(F)c3)CC2)C1 (single isomer, unassigned) [73C*]",

Compound,IC50 [1] [µM],IC50 [2] [µM]
"C[C@H]1C[C@@H](NC(=O)C2(c3ccc(C(F)(F)F)cc3)CC2)[C@@H]2CC[C@H]1N2c1nnn[nH]1 [79C*, N-((1S,2R,4S,5R)-4-methy1-8-(1H-tetrazol-5-yl)-8-azabicyclo[3.2.1]octan-2-yl)-1-(4-(trifluoromethyl)phenyl)cyclopropane-1-carboxamide]",10 to 50,
"Cc1ccc(C2(C(=O)N[C@H]3C[C@H](C)[C@H]4CC[C@@H]3N4c3nnn[nH]3)CC2)cc1 [87D*, N-((1S,2S,4S,5R)-4-methy1-8-(1H-tetrazol-5-yl)-8-azabicyclo[3.2.1]octan-2-yl)-1-(p-tolyl)cyclopropane-1-carboxamide]",> 100,
"O=C(N[C@H]1C[C@H](C(F)(F)F)[C@H]2CC[C@@H]1N2c1nnn[nH]1)C1(c2ccc(Cl)cc2)CC1 (single isomer, unassigned) [103D*]",10 to 50,
"O=C(N[C@H]1CC[C@@H]2CC[C@H]1N2c1nnn[nH]1)C1(c2ccc(Cl)cc2O)CC1 [75B*, N-((1R,2S,5R)-8-(1H-tetrazol-5-yl)-8-azabicyclo[3.2.1]octan-2-yl)-1-(4-chloro-2-hydroxyphenyl)cyclopropane-1-carboxamide]",1 to 10,
"C[C@@H]1C[C@H](NC(=O)C2(c3ccc(SC(F)F)cc3)CC2)[C@H]2CC[C@@H]1N2c1nnn[nH]1 [85B*, 1-(4-((difluoromethyl)thio)phenyl)-N-((1R,2S,4R,5S)-4-methyl-8-(1H-tetrazol-5-yl)-8-azabicyclo[3.2.1]octan-2-yl)cyclopropane-1-carboxamide]",10 to 50,
"C[C@@H]1C[C@H](NC(=O)C2(c3ccc(OC(F)F)cc3F)CC2)[C@H]2CC[C@@H]1N2c1nnn[nH]1 (stereo in doubt) [101B*, 1-(4-(difluoromethoxy)-2-fluorophenyl)-N-(4-methyl-8-(1H-tetrazol-5-yl)-8-azabicyclo[3.2.1]octan-2-yl)cyclopropane-1-carboxamide]",> 100,
"C[C@H]1C[C@@H](NC(=O)C2(c3ccc(C4CC4(F)F)cc3)CC2)[C@@H]2CC[C@H]1N2c1nnn[nH]1 (single isomer, unassigned) [37C*]",> 100,
"C[C@H]1C[C@@H](NC(=O)C2(c3ccc(OC(F)F)cc3F)CC2)[C@@H]2CC[C@H]1N2c1nnn[nH]1 (stereo in doubt) [101C*, 1-(4-(difluoromethoxy)-2-fluorophenyl)-N-(4-methyl-8-(1H-tetrazol-5-yl)-8-azabicyclo[3.2.1]octan-2-yl)cyclopropane-1-carboxamide]",> 100,
"C[C@@H]1CC[C@H](NC(=O)C2(c3ccc(C(F)(F)F)cc3O)CC2)CN(c2nnn[nH]2)C1 [89D*, 1-(2-hydroxy-4-(trifluoromethyl)phenyl)-N-((3S,6R)-6-methyl-1-(1H-tetrazol-5-yl)azepan-3-yl)cyclopropane-1-carboxamide]",1 to 10,
"O=C(N[C@H]1CCC[C@@H]2CC[C@H]1N2c1nnn[nH]1)C1(c2ccc(C(F)(F)F)cc2O)CC1 [88B*, N-((1R,2S,6R)-9-(1H-tetrazol-5-yl)-9-azabicyclo[4.2.1]nonan-2-yl)-1-(2-hydroxy-4-(trifluoromethyl)phenyl)cyclopropane-1-carboxamide]",< 1,
